Test systems include DLD-1 colon; M19-MEL melanoma; DU-145 prostate; PC-3 prostate; MCF7 breast; MDA-N; MDA-MB-231 breast; XF 498 CNS; RXF-631 renal; SN12K1 renal; P388 leukemia; P388/ADR leukemia.
Assay in all cases: NCI tumour cell line growth inhibition, 48 h

“And” between values parts separate entries of the source, which are not always exact repeats. Equal entries are not always repeated.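 A five-concentration, 48-hour dose response in 96-well plates underlies each endpoint, interpolated linearly between surrounding concentrations. At the GI50, growth is halved. The concentration for full growth arrest is given as TGI.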

For the compound `CC(=O)[CH-]C(=O)c1ccccc1.CC(=O)[CH-]C(=O)c1ccccc1.CC(C)CCCC(C)[C@H]1CCC2[C@@H]3CCC4C[C@@H]([O-])CC[C@]4(C)C3CC[C@@]21C.CC(C)CCCC(C)[C@H]1CCC2[C@@H]3CCC4C[C@@H]([O-])CC[C@]4(C)C3CC[C@@]21C.Cl.[Ti+4]` (some centres not stated), the GI50 with DLD-1 colon and in the test with M19-MEL melanoma was more than 25 µM in each case. Further, the TGI in the test with DLD-1 colon and in the test with M19-MEL melanoma was more than 25 µM each time.

As to `Nc1nc(N)c2ncn(Cc3c(Cl)cccc3Cl)c2n1`, the TGI with DU-145 prostate, in the test with PC-3 prostate, in the test on MCF7 breast, in the test on MDA-N and in the test on MDA-MB-231 breast was more than 100 µM throughout.

Turning to `C=CC1(C)/C(=N\O)C(C)(CC)C(=O)N1O` (configuration not stated), the TGI in the test on XF 498 CNS, with RXF-631 renal, with DLD-1 colon and in the test with M19-MEL melanoma was more than 100 µM each time.

With `CCN(CC)CCNc1ccc(CO)c2sc3ccccc3c(=O)c12`, the TGI in the test with SN12K1 renal is 17.4 µM; in the test with P388 leukemia, 8.68 µM; in the test on DU-145 prostate, 9.87 µM and 27.6 µM; in the test on XF 498 CNS it was 24.5 µM; in the test on PC-3 prostate, 17.5 µM and 17.8 µM; in the test on MCF7 breast it was 7.55 µM and 17.3 µM and 19.2 µM. Besides, the TGI was 31.3 µM with P388/ADR leukemia; 16.6 µM in the test with MDA-N; 21.7 µM and 20.6 µM with MDA-MB-231 breast; 26.5 µM and 31.6 µM in the test on M19-MEL melanoma. The GI50 is 2.99 µM with DU-145 prostate; 3.65 µM with PC-3 prostate; 2.21 µM and 4.35 µM and 5.57 µM in the test on MCF7 breast; 4.26 µM and 4.92 µM in the test with MDA-MB-231 breast.

Take `COc1cccc(C(=O)O)c1Cc1cccc2ccccc12`: the TGI with DLD-1 colon and in the test on M19-MEL melanoma was more than 100 µM each time.

For `O=C(O)C1(C(=O)O)CCN(S(=O)(=O)c2ccccc2)CC1`, the TGI in the test on DU-145 prostate, with PC-3 prostate, with MCF7 breast, in the test with MDA-N and with MDA-MB-231 breast was more than 100 µM in each case.

Consider `CC(C)[C@H](COC(C)(C)C)N=CN1CSc2ccccc21`, for which the TGI in the test on XF 498 CNS was 47.8 µM; in the test with RXF-631 renal, more than 100 µM; in the test with DLD-1 colon, more than 100 µM; in the test on M19-MEL melanoma, more than 100 µM.

Consider `Cc1cc(Cl)ccc1OCC(=O)Oc1c(Cl)c(Cl)c(Cl)c(Cl)c1Cl`, for which the TGI stood at 49.2 µM with DU-145 prostate; 80.1 µM with PC-3 prostate; 96.7 µM in the test on MCF7 breast; 74.5 µM in the test with MDA-N; 38.1 µM in the test on MDA-MB-231 breast.

Take `CC(=O)[CH-]C(=O)c1ccccc1.CC(=O)[CH-]C(=O)c1ccccc1.[O-]c1ccc(O)cc1.[O-]c1ccc(O)cc1.[Ti+4]`: in the test on DLD-1 colon, the GI50 was 16.6 µM and the TGI is 37.6 µM. In the test on M19-MEL melanoma, the GI50 was 14.8 µM and the TGI was 29.7 µM.

Regarding `CC(=O)N1C(=O)C(=O)c2cc(Cl)ccc21`, the TGI with XF 498 CNS was 65.2 µM; in the test on RXF-631 renal, more than 100 µM; in the test with DLD-1 colon it was more than 100 µM; in the test on M19-MEL melanoma, more than 100 µM.

In the case of `O=C(CN1C(=O)c2ccccc2C1=O)OC1C=CCCC1` (configuration not stated), the TGI in the test with DLD-1 colon and with M19-MEL melanoma was more than 100 µM in each case.

As to `CC(C)(C)c1cc2c(OP(c3ccccc3)c3ccccc3)c(c1)Cc1cc(C(C)(C)C)cc(c1OP(c1ccccc1)c1ccccc1)Cc1cc(C(C)(C)C)cc(c1OP(c1ccccc1)c1ccccc1)Cc1cc(C(C)(C)C)cc(c1OP(c1ccccc1)c1ccccc1)C2`, the GI50 in the test on DLD-1 colon and with M19-MEL melanoma was more than 50 µM throughout. Besides, the TGI in the test on DLD-1 colon and in the test with M19-MEL melanoma was more than 50 µM throughout.

For `O=C1c2ccccc2C(=O)N1C/C=N/NS(=O)(=O)c1ccc(Cl)cc1`, the TGI with XF 498 CNS, in the test with RXF-631 renal, in the test with DLD-1 colon and in the test on M19-MEL melanoma was more than 100 µM throughout.

Regarding `NC(CCc1nc(-c2ccccc2)cs1)C(=O)O` (configuration not stated), the TGI in the test on DLD-1 colon and with M19-MEL melanoma was more than 100 µM throughout.

Consider `CCC1N2CCCCC2[C@@H]2c3[nH]c4ccccc4c3CCN12` (some centres not stated), for which the TGI in the test with XF 498 CNS, in the test with RXF-631 renal, in the test on DLD-1 colon and in the test on M19-MEL melanoma was more than 100 µM each time.

`COC(=O)/C1=C/C2CC(/C=C(/c3ccccc3)C(=O)O1)C2`: the TGI with XF 498 CNS was 45.2 µM; in the test with DLD-1 colon, more than 100 µM; in the test with M19-MEL melanoma, more than 100 µM.

`COc1cc([N+](=O)[O-])c(S(=O)(=O)O)cc1-n1nc(-c2ccccc2)n[n+]1-c1cc(S(=O)(=O)[O-])c([N+](=O)[O-])cc1OC`: the TGI in the test with DU-145 prostate, with PC-3 prostate, in the test with MCF7 breast, in the test on MDA-N and in the test on MDA-MB-231 breast was more than 100 µM in each case.

Consider `CCCCC/C=C1\CCC(CN2CCOCC2)C1=O` (configuration not stated), for which the TGI came to 33.2 µM with DU-145 prostate; 31.8 µM with XF 498 CNS; 30.9 µM in the test on PC-3 prostate; 7.73 µM in the test with MCF7 breast; 44.9 µM in the test with RXF-631 renal; 25.4 µM in the test on MDA-N. Further, the results for the TGI in the test with DLD-1 colon, in the test with MDA-MB-231 breast and in the test with M19-MEL melanoma were 19.2 µM, more than 23.2 µM and more than 54.8 µM, respectively.

As to `N#CC(C(=N/NC(N)=S)/C(=N\NC(N)=S)C(C#N)c1ccccc1)c1ccccc1` (configuration not stated), the TGI in the test on XF 498 CNS, in the test on RXF-631 renal, in the test with DLD-1 colon and with M19-MEL melanoma was more than 10 µM each time.

Take `CCC1(c2ccncc2)CCC(=O)NC1=O` (configuration not stated): the TGI in the test with XF 498 CNS, in the test on RXF-631 renal, in the test on DLD-1 colon and with M19-MEL melanoma was more than 100 µM each time.

As to `CCC(=O)[O-].CCC(=O)[O-].N.N.N.N.[Co+3].[O-][Cl+3]([O-])([O-])[O-]`, in the test on DLD-1 colon, the GI50 is more than 100 µM and the TGI was more than 100 µM.

As to `C#Cc1cccc(N2C(=O)CC(=P(c3ccccc3)(c3ccccc3)c3ccccc3)C2=O)c1`, the TGI is 38.8 µM in the test with XF 498 CNS, more than 100 µM with DLD-1 colon and more than 100 µM with M19-MEL melanoma.

These data come from PubChem BioAssay (NCI).
